# “And” between values parts separate entries of the source, which are not always exact repeats. Equal entries are not always repeated.
# What was measured:
# [1] = test system: GFP-positive Purkinje cells infected with AAV-L7-mGlu1^WT; assay: chemLTD recording in GFP-positive Purkinje cells, slices infected with AAV-L7-mGlu1^WT; format: cell-based, mouse; conditions: AAV-L7-mGlu1WT
# [2] = Solubility of Pd complexes in ACSF by UV-vis spectroscopy; conditions: 1 h at 4 °C
# [3] = test system: Purkinje cells in cerebellar slices from mGlu1^CBC/CBC mice; assay: chemLTD recording (PF-EPSC) in Purkinje cells of acute cerebellar slices, mGlu1^CBC/CBC mice; format: cell-based, mouse; conditions: for PF-EPSC amplitude relative to time 0: mGlu1CBC/CBC, individual cells
# Description: Sagittal cerebellar slices were cut with a microslicer (Linear slicer Pro7; DOSAKA EM) in cutting solution buffer and then incubated in ACSF gassed with 5% CO2 and 95% O2 at room temperature.
# Whole-cell patch-clamp recordings were made from visually identified Purkinje cells using a 60× water-immersion objective attached to an upright microscope (BX51WI, Olympus) at room temperature, as described previously. […] Picrotoxin (100 µM; Sigma) was always added to the saline to block inhibitory synaptic transmission.
# To evoke EPSCs derived from CF (CF-EPSCs) and PF (PF-EPSCs) inputs onto Purkinje cells, square pulses were applied through a stimulating electrode placed on the granular layer and the molecular layer (50 µm away from the pial surface), respectively. The selective stimulation of CFs and PFs was confirmed by the paired-pulse depression (PPD) and paired-pulse facilitation (PPF) of EPSC amplitudes at a 50-ms interstimulus interval (ISI), respectively.
# For the LTD sessions, PF-EPSCs were recorded successively at a frequency of 0.1 Hz from Purkinje cells clamped at –80 mV. After a stable PF-EPSC amplitude had been observed for at least 5 min, a conjunctive stimulation that consisted of 30 single PF stimuli together with a 200 ms depolarizing pulse from a holding potential of –60 to +20 mV was applied for LTD induction.
# To chemically induce LTD (chemLTD), 50 µM (S)-3,5-dihydroxyphenylglycine (DHPG) or 1 µM Pd(sulfo-bpy) was applied for 10 min in a current-clamp mode. We often observed a transient decrease in PF-EPSC amplitude after the application of each drug probably because Purkinje cells under current-clamp conditions excite spontaneously to suppress presynaptic function through the retrograde signaling. Access resistances were monitored every 10 s by measuring the peak currents in response to 2 mV, 50-ms hyperpolarizing steps throughout the experiments; the measurements were discarded if the resistance changed by >20% of its original value. The normalized EPSC amplitude on the ordinate represents the EPSC amplitude for the average of six traces for 1 min divided by that of the average of six traces for 1 min immediately before the conjunctive stimulation or the drug application.
smiles,measurement,setting,value
Cc1ccnc(-c2cc(COCCCS(=O)(=O)[O-])ccn2)c1.[Cl][Pd][Cl].[Na+] [Pd(sulfo-bpy)],"PF-EPSC amplitude normalized to time 0, individual Purkinje cells",[1]; Time 20 min,1.078 and 1.198 and 0.844 and 0.865 and 1.008 and 0.5754 and 0.7572
same,"PF-EPSC amplitude normalized to time 0, mean of cells",[1]; Time 20 min,0.9036
same,"PF-EPSC amplitude normalized to time 0, individual Purkinje cells",[1]; Time 21 min,0.9655 and 1.126 and 0.8812 and 0.8773 and 1.052 and 0.5885 and 0.7582
same,"PF-EPSC amplitude normalized to time 0, mean of cells",[1]; Time 21 min,0.8926
same,"PF-EPSC amplitude normalized to time 0, individual Purkinje cells",[1]; Time 22 min,1.0065 and 1.121 and 0.9135 and 0.8951 and 1.02 and 0.5416 and 0.8122
same,"PF-EPSC amplitude normalized to time 0, mean of cells",[1]; Time 22 min,0.9014
same,"PF-EPSC amplitude normalized to time 0, individual Purkinje cells",[1]; Time 23 min,1.013 and 1.096 and 0.8837 and 0.8809 and 1.04 and 0.5776 and 0.8487
same,"PF-EPSC amplitude normalized to time 0, mean of cells",[1]; Time 23 min,0.9057
same,"PF-EPSC amplitude normalized to time 0, individual Purkinje cells",[1]; Time 24 min,1.0609 and 0.96 and 0.924 and 0.9136 and 1.045 and 0.5613 and 0.9388
same,"PF-EPSC amplitude normalized to time 0, mean of cells",[1]; Time 24 min,0.9148
same,"PF-EPSC amplitude normalized to time 0, individual Purkinje cells",[1]; Time 25 min,1.0868 and 0.9289
same,"PF-EPSC amplitude normalized to time 0, mean of cells",[1]; Time 25 min,0.9269
same,"PF-EPSC amplitude normalized to time 0, mean of cells",[1]; Time 26 min,0.8953
same,"PF-EPSC amplitude normalized to time 0, mean of cells",[1]; Time 27 min,0.9119
same,"PF-EPSC amplitude normalized to time 0, mean of cells",[1]; Time 28 min,0.9459
same,"PF-EPSC amplitude normalized to time 0, mean of cells",[1]; Time 29 min,0.9165
same,"PF-EPSC amplitude normalized to time 0, mean of cells",[1]; Time 30 min,0.8807
same,"PF-EPSC amplitude normalized to time 0, mean of cells",[1]; Time 31 min,0.8545
same,"PF-EPSC amplitude normalized to time 0, mean of cells",[1]; Time 32 min,0.8798
same,"PF-EPSC amplitude normalized to time 0, mean of cells",[1]; Time 33 min,0.8652
same,"PF-EPSC amplitude normalized to time 0, mean of cells",[1]; Time 34 min,0.8955
same,"PF-EPSC amplitude normalized to time 0, mean of cells",[1]; Time 35 min,0.9028
same,"PF-EPSC amplitude normalized to time 0, mean of cells",[1]; Time 36 min,0.8988
same,"PF-EPSC amplitude normalized to time 0, mean of cells",[1]; Time 37 min,0.876
same,Solubility: concentration over which linearity of absorbance at 312 nm is observed,[2],over 1 mM
same,chemLTD: normalized PF-EPSC amplitude,"[3]; 1 μM Pd(sulfo-bpy) for 10 min, t = 31−35 min",71 ± 5%
same,PF-EPSC amplitude relative to time 0,[3]; time 11 min,0.6364 and 0.5841 and 0.6893 and 0.9073 and 0.8328 and 0.7699 and 0.718 and 0.7562 and 0.9988 and 0.8349 and 0.5757
same,PF-EPSC amplitude relative to time 0,[3]; time 12 min,0.827 and 0.5867 and 0.7148 and 0.9371 and 0.7788 and 0.6794 and 0.7449 and 0.7226 and 1.01 and 0.7931 and 0.6087
same,PF-EPSC amplitude relative to time 0,[3]; time 13 min,0.8172 and 0.6851 and 0.7171 and 1.091 and 0.7809 and 0.6502 and 0.6746 and 0.5919 and 1.019 and 0.8421 and 0.5537
same,PF-EPSC amplitude relative to time 0,[3]; time 14 min,0.7882 and 0.6733 and 0.6788 and 1.041 and 0.7381 and 0.6557 and 0.5543 and 0.7541 and 0.9808 and 0.752 and 0.5358
same,PF-EPSC amplitude relative to time 0,[3]; time 15 min,0.7548 and 0.7484 and 0.6382 and 0.9601 and 0.7893 and 0.6974 and 0.5323 and 0.7206 and 0.9958 and 0.7333 and 0.563
same,PF-EPSC amplitude relative to time 0,[3]; time 16 min,0.7642 and 0.6145 and 0.7007 and 0.8597 and 0.792 and 0.6967 and 0.6481 and 0.669 and 0.9606 and 0.6776 and 0.562
same,PF-EPSC amplitude relative to time 0,[3]; time 17 min,0.7633 and 0.6552 and 0.685 and 0.991 and 0.7793 and 0.8388 and 0.6612 and 0.7158 and 1.026 and 0.669 and 0.5661
same,PF-EPSC amplitude relative to time 0,[3]; time 18 min,0.7518 and 0.6433 and 0.6556 and 0.9807 and 0.8623 and 0.726 and 0.6303 and 0.6396 and 0.9248 and 0.6931 and 0.5685
same,PF-EPSC amplitude relative to time 0,[3]; time 19 min,0.7866 and 0.7223 and 0.6298 and 1.039 and 0.7923 and 0.7732 and 0.6413 and 0.6754 and 1.015 and 0.7024 and 0.4513
same,PF-EPSC amplitude relative to time 0,[3]; time 20 min,0.7361

# From PMC9203742 (Nature Communications, 2022)
